Peptide text beside a SMILES is read from it. * marks the point of attachment. Cbz = O=C(OCc1ccccc1)*; CH2F = FC*
Experiments:
MIA PaCa-2 cells [1] = assay: Viability of AJO14-treated cells in presence of cell death inhibitors; type: cell-based, human; conditions: MIA PaCa-2, 24 h; Z-VAD-FMK (20 µM), Nec-1 (40 µM), or Olaparib (25 μM)
MIA PaCa-2 cells [2] = assay: Oxygen consumption rate, Seahorse XF; type: cell-based, human; conditions: MIA PaCa-2, 24 h, AJO14 (10 μM) with increasing concentrations of Olaparib
hERG channel = hERG channel (Homo sapiens, UniProt Q12809); assay: Predictor hERG Fluorescence Polarization assay; type: binding; conditions: read-out: hERG channel inhibition (IC50), 0.1-80 μM
Sequence of hERG channel (Q12809 whole entry): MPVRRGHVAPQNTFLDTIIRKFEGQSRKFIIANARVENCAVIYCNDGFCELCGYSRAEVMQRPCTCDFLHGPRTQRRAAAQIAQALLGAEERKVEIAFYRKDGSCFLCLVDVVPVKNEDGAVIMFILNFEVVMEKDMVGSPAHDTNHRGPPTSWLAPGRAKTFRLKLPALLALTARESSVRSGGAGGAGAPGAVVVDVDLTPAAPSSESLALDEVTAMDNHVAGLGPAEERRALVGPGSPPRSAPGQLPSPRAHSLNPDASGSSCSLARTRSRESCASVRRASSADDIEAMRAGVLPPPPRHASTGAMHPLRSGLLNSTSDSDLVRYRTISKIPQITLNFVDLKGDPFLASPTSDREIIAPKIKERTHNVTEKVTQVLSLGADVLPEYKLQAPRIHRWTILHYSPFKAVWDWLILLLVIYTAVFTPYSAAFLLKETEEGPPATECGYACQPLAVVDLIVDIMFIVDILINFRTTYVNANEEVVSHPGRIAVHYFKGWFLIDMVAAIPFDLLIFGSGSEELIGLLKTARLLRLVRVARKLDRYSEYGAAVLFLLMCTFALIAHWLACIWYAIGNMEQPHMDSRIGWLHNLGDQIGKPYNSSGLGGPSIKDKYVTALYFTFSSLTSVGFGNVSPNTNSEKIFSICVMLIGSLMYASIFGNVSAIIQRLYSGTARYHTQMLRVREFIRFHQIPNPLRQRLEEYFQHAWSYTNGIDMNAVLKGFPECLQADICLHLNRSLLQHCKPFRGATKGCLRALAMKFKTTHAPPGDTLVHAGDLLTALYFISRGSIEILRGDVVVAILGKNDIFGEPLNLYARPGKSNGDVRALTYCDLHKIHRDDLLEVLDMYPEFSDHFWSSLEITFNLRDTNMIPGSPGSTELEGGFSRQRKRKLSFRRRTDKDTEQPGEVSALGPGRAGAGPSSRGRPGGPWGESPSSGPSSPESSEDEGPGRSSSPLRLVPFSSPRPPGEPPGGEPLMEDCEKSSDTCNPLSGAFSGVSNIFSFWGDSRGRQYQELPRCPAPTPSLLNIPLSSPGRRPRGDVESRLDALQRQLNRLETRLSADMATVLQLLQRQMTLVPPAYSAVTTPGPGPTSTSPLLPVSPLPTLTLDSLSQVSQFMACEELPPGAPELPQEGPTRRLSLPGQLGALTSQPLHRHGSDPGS

Row | Compound | effect of pretreatment on cell viability of cells treated with AJO14 (MIA PaCa-2 cells [1]) | effect on mitochondrial metabolism failure (OCR) caused by AJO14 (MIA PaCa-2 cells [2]) | IC50 (hERG channel) [nM]
1 | CN1C(=O)C(Cc2c[nH]c3ccccc23)NC1=S (centres unmarked) [Necrostatin] | partially improved the cell viability | – | –
2 | O=C(c1cc(Cc2n[nH]c(=O)c3ccccc23)ccc1F)N1CCN(C(=O)C2CC2)CC1 [Olaparib] | partially improved the cell viability | could reverse the strong mitochondrial metabolism failure caused by AJO14 | –
3 | COC(=O)C[C@H](NC(=O)[C@H](C)NC(=O)[C@@H](NC(=O)OCc1ccccc1)C(C)C)C(=O)CF [Z-VAD-FMK] (Cbz-Val-Ala-Asp(OMe)-CH2F) | partially improved the cell viability | – | –
4 | CN(C)CCN1CCN(CCCN2c3ccccc3Sc3ccc(C(F)(F)F)cc32)CC1 [ZZW-115] | – | – | 2000

Source: PMC11603058 (Scientific Reports, 2024)
